In patent US9346764B2, “Imidazolidinedione compounds and their uses” (HINOVA PHARMACEUTICALS INC., priority 2011, dated 2016):
Like-named read-outs stand apart in the source and are kept apart here.

Legend:
[1] = Pharmacokinetic evaluation in mice; format: in vivo, Kunming mice (KM mice); conditions: male KM mice, 10 mg/kg intragastrically; for Cmax / Tmax: Kunming (KM), mouse, plasma, po, DMSO:PEG400:H2O 1:5:14
Description: Compounds were dissolved in DMSO:PEG400:H2O 1:5:14. The volume of administration was 10 mL/kg. Before testing, the mice fasted for 12 h and drunk water ad libitum. Then, the mice were fed together at 2 h after administration. 0.3 mL of blood were took from 3 mice through retrobulbar venous plexus at 0.5, 1.0, 2.0, 4.0, 6.0 and 24 h after administration, placed in heparinized tubes, and centrifuged for 5 min at 11000 rpm. The plasma was separated and frozen in a refrigerator at −20° C. 100 uL of serum was transferred with a pipettor into a clean plastic centrifuge tube marked with compound's name and time point, and diluted with acetonitrile (CH3CN) and centrifuged. The concentration of drug was analyzed by LC-MS. Serum was stored at −80° C. before analysis.

[2] = test system: prostate specific antigen (PSA); test: Inhibition of prostate specific antigen (PSA) in 22RV1 cells induced with R1881; format: cell-based; conditions: Homo sapiens, 22Rv1, read-out: 22RV1 (IC50, nM)
Description: (§1) The in vitro biological activity of test compounds of the present invention as androgen receptor antagonist can be tested by the methods as reported in J. Medcinal Chemistry (2010, page 2779-2796 and WO201 1/029392).
(§2) The inhibition activity of these compounds on prostate specific antigen (PSA) was determined using prostate cancer cells (LNCaP and 22RV1). Prostate cancer cells (LNCaP and 22RV1) could be purchased from ATCC, USA. The expression of PSA in cells was induced with the artificially synthesized androgen R1881 (methyltrienolone, androgen receptor activator) to increase the sensitivity of inhibition experiment.

[3] = test system: human prostate cancer 22RV1 cells; test: Inhibition of the growth of prostate cancer cells (MTT), 22RV1; format: cell-based
Description: (§3) The ability of compounds to inhibit the growth of prostate cancer cells was tested:
(§4) First, the human prostate cancer LNCaP (purchased from ATCC, USA) and 22RV1 (purchased from SIBS) cells were transferred to a RPMI1640 culture medium containing 10% charcoal-stripped fetal bovine serum (FBS). After cultured for three days, the cells were digested with 0.25% trypsin and counted through trypan blue staining. The cells were plated, with 100 μL cell suspension containing 5000 cells per well. 200 μL medium was added to the wells around the cell plate for avoiding edge effects.
(§5) The cell plate was placed in a cell incubator for 30 min, 10 μL of 4 nM R1881 was added into each well and homogeneously mixed. Upon the addition of R1881, the cell plate was placed in a cell incubator and incubated at 37° C., under 5% CO2 for 96 hours. Afterwards, 40 μL of MTT (prepared in PBS, concentration is 2.5 mg/mL) was added into each wells, and incubated at 37° C. for 2 hours. The supernatant was sucked off, and 100 μL of DMSO was added into each well. The plate was shaken by a vibrator for 10 min for dissolving formazan. The plate was read at 570 nm wavelength using a microplate reader in the unit of OD.

[4] = test system: prostate specific antigen (PSA); test: Inhibition of prostate specific antigen (PSA) in LNCaP cells induced with R1881; format: cell-based; conditions: Homo sapiens, read-out: LNCaP (IC50, nM)
Description: as §1, §2

[5] = test system: human prostate cancer LNCaP cells; test: Inhibition of the growth of prostate cancer cells (MTT), LNCaP; format: cell-based
Description: as §3, §4, §5

[6] = Homo sapiens, 22Rv1, 96 h, read-out: 22RV1 (IC50, uM)
[7] = Homo sapiens, LNCaP, 96 h, read-out: LNCaP (IC50, uM)
[8] = Homo sapiens, growth inhibition, 22RV1 cells, R1881 added, 96 hours, MTT, read-out: 22RV1 (IC50)
[9] = Homo sapiens, growth inhibition, LNCaP cells, R1881 added, 96 hours, MTT, read-out: LNCaP (IC50)
[10] = growth inhibition, LNCaP cells, R1881 added, 96 hours, MTT, read-out: LNCaP (IC50)

| Compound | IC50 [2] [nM] | IC50 [3, 6] [µM] | IC50 [4] [nM] | IC50 [5, 7] [µM] | IC50 [3, 8] [µM] | IC50 [5, 9] [µM] | also measured |
| --- | --- | --- | --- | --- | --- | --- | --- |
| [2H]C([2H])([2H])NC(=O)c1ccc(N2C(=S)N(c3ccc(C#N)c(C(F)(F)F)c3)C(=O)C2(C)C)cc1F [Example 6, 4-{7-[4-cyano-3-(trifluoromethyl)phenyl]-5,5-dimethyl-4-oxo-2-thio-1-imidazolidinyl}-2-fluoro-N-trideuteromethylbenzamide] | – | – | – | – | – | – | Cmax [1]: 10400 ng/mL; Tmax [1]: 6 h; AUC compared with undeuterated compound 17 [1]: significantly increased; Cmax increase compared with undeuterated compound 17 [1]: at least 20% |
| CNC(=O)c1ccc(N2C(=S)N(c3ccc(C#N)c(C(F)(F)F)c3)C(=O)C23CCC3)cc1F [Example 1, reference compound] | < 2000 | 26 | < 1000 | 4.09 | – | – | – |
| [2H]c1cc(N2C(=S)N(c3ccc(C#N)c(C(F)(F)F)c3)C(=O)C2(C)C)ccc1C(=O)NC [Example 11, 4-{7-[4-cyano-3-(trifluoromethyl)phenyl]-5,5-dimethyl-4-oxo-2-thio-1-imidazolidinyl}-2-deutero-N-methyl benzamide] | – | 18.9 | – | 1.75 | – | – | – |
| CNC(=O)c1ccc(N2C(=S)N(c3ccc(C#N)c(C(F)(F)F)c3)C(=O)C2(C)C)cc1F [Example 4, 4-{7-[4-cyano-3-(trifluoromethyl)phenyl]-5,5-dimethyl-4-oxo-2-thio-1-imidazolidinyl}-2-fluoro-N-methyl-benzamide, reference compound] | – | – | – | – | – | – | Cmax [1]: 8450 ng/mL; Tmax [1]: 6 h |
| CN(C)C(=O)c1ccc(N2C(=S)N(c3ccc(C#N)c(C(F)(F)F)c3)C(=O)C23CCC3)cc1F [Example 2] | < 1600 | – | < 800 | – | 20.8 | 1.37 | – |
| CNC(=O)c1ccc(N2C(=S)N(c3ccc(C#N)c(C(F)(F)F)c3)C(=O)C2(C)C)cc1 [Example 12, 4-{7-[4-cyano-3-(trifluoromethyl)phenyl]-5,5-dimethyl-4-oxo-2-thio-1-imidazolidinyl}-2-deutero-N-trideuteromethyl benzamide] | – | – | – | – | – | – | IC50 ([3]; growth inhibition, 22RV1 cells, R1881 added, 96 hours, MTT, read-out: 22RV1 (IC50)): 25.8 µM; IC50 [5, 10]: 2.42 µM |
| CN(C)C(=O)c1ccc(N2C(=S)N(c3ccc(C#N)c(C(F)(F)F)c3)C(=O)C2(C)C)cc1F [Example 5, 4-{7-[4-cyano-3-(trifluoromethyl)phenyl]-5,5-dimethyl-4-oxo-2-thio-1-imidazolidinyl}-2-fluoro-N,N-dimethyl benzamide] | < 1600 | – | < 800 | – | 23.4 | 2.07 | – |
| [2H]C([2H])([2H])NC(=O)c1ccc(N2C(=S)N(c3ccc(C#N)c(C(F)(F)F)c3)C(=O)C23CCC3)cc1F [Example 3] | < 1000 | 15 | < 400 | 0.36 | – | – | – |
| CNC(=O)c1ccc(N2C(=S)N(c3ccc(C#N)c(C(F)(F)F)c3)C(=O)C2(C)C)cc1F [Example 14, 4-{7-[4-cyano-3-trifluoromethyl-2,6-dideuterophenyl]-5,5-dimethyl-4-oxo-2-thio-1-imidazolidinyl}-2-fluoro-N-trideuteromethyl benzamide] | – | – | – | – | – | – | IC50 [5, 10]: 1.5 µM |
| CC(O)(CS(=O)(=O)c1ccc(F)cc1)C(=O)Nc1ccc(C#N)c(C(F)(F)F)c1 (centres unmarked) [bicalutamide, reference compound] | – | – | – | – | 30.9 | 18.4 | – |
